pIC50: −log10 of the molar value.
Experiments:
[1] = target: T1, CYP17 (Homo sapiens, UniProt P05093); assay: Inhibition of lyase activity (CYP17); assay type: biochemical; details: CYP17 expressed by transfected E. coli; radiolabelled 17α-hydroxypregnenolone substrate
T1 construct: made in house; host or cells: E. coli
T1 sequence (P05093 1-508): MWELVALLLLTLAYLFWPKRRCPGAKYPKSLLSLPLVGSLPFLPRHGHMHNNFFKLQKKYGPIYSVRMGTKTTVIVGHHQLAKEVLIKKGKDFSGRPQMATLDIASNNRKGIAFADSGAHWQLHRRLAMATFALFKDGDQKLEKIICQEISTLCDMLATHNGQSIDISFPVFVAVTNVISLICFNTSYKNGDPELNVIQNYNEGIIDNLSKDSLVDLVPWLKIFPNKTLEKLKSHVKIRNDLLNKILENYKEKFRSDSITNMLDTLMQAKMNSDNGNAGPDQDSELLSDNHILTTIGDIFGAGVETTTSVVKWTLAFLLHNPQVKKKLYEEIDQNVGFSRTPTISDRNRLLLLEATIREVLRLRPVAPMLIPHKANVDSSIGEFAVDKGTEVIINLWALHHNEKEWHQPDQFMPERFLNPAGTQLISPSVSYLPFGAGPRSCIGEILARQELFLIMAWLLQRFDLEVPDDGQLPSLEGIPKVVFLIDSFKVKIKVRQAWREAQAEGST
Procedure: Intact CYP17 expressed by transfected E. coli was isolated and purified as an enzyme source. Radiolabelled 17α-hydroxypregnenolone as the substrate. CYP17 activity was measured by the amount of tritiated acetic acid formed during the cleavage of the C-21 side chain of the substrate.

[2] = in vivo; details: dog
Description: On an AUC basis the human starting dose is predicted to be 16 times lower than the NOAEL dose in dogs.

[3] = system: off-target receptors; assay: In vitro safety testing: off-target receptors; assay type: binding
[4] = system: LAPC4 prostate cancer cell tumors; assay: Growth of human prostate cancer xenografts in SCID mice; assay type: in vivo
Procedure: Xenografts of LAPC4 prostate cancer cell tumors were implanted in SCID mice. […] Tumor size was measured weekly and compared with control mice that received vehicle, Casodex® or castration only.

[5] = Chronic administration toxicity in rats; assay type: in vivo; details: administered chronically to rats
[6] = system: LAPC-4; assay: Inhibition of testosterone-induced proliferation, LAPC-4; assay type: cell-based, human; details: LAPC-4 stimulated with 1 nM DHT
Procedure: (§1) Human prostate cancer cell lines (LNCaP and LAPC-4) were grown in culture and stimulated with 1 nM dihydrotestosterone (DHT). This concentration of DHT stimulated the proliferation of prostate cancer cells.

[7] = Oral bioavailability (nonclinical); details: in vivo
[8] = system: PSA; assay: Clinical study in chemotherapy naive CRPC: PSA response; assay type: in vivo, human
Procedure: The primary efficacy endpoint is the percent of subjects with 50% or greater decrease in PSA from baseline to 12 weeks, or PSA nadir (whichever comes first). Frequency and percentage are calculated for each treatment group. The primary analysis is also repeated using the PP Population.
A clinical study was performed according to the protocol of Example 6. Compound (1) was administered to four cohorts, each in a different amount.

[9] = system: cytochrome P450 systems; assay: In vitro safety testing: cytochrome P450 systems; assay type: in vitro ADME
[10] = system: LNCaP; assay: Inhibition of testosterone-induced proliferation, LNCaP; assay type: cell-based, human; details: LNCaP stimulated with 1 nM DHT
Procedure: as §1

[11] = In vitro safety testing: genotoxicity
[12] = Nonclinical safety evaluation (cell-based and animal models); details: nonclinical data
Description: This is a first-in-man trial of Compound 1 and potential toxic effects in humans are not yet fully known. […] An additional known class effect, apparent mineralocorticoid excess (AME), was not seen in nonclinical studies. This trial has been designed with the adverse nonclinical findings, theoretical MOA, and consideration of known class effect issues in mind. The trial evaluates potential clinical benefit and provides proof of concept while minimizing risk to subjects.

## C[C@]12CC[C@H](O)CC1=CCC1C2CC[C@]2(C)C(n3cnc4ccccc43)=CCC12 (stereo partly drawn) [Compound (1), 3-β-Hydroxy-17-(1H-benzimidazol-1-yl)androsta-5,16-diene]
[1]
  pIC50: 6.52
[2]
  NOAEL: 150 mg/kg
[3]
  interaction with off-target receptors: only at high micromolar concentrations
[4]; 50 mg/kg BW SC twice daily, compared with castration
  tumor growth: comparable or more pronounced decrease in tumor growth compared to castration
[4]; SCID mouse models, levels corresponding to human subcutaneous doses of 140, 280, and 560 mg
  size of androgen dependent human prostate tumors: dramatic reduction
[5]
  toxic responses: fails to elicit toxic responses
[6]
  inhibition of testosterone induced proliferation: dose-dependent inhibition
[7]
  oral bioavailability: orally bioavailable
[8]; Cohort 1, 650 mg/day, 6 patients treated
  Percentage of Patients With a PSA Response: 67% (4)
[8]; Cohort 2, 975 mg/day, 6 patients treated
  Percentage of Patients With a PSA Response: 67% (4)
[8]; Cohort 3, 1300 mg/day, 6 patients treated
  Percentage of Patients With a PSA Response: 83% (5)
[8]; Cohort 4, 1950 mg/day, 7 patients treated
  Percentage of Patients With a PSA Response: 71% (5)
[9]
  interference with activity of cytochrome P450 systems known to metabolize many drugs: does not interfere
[10]
  inhibition of testosterone induced proliferation: dose-dependent inhibition
[11]
  genotoxicity: does not have genotoxicity
[12]
  only safety signal seen: hepatoxicity
  toxicity in cell-based and animal models: minimal toxicity

Source: US8791094B2, “Treatment of prostate cancer” (Tokai Pharmaceuticals, Inc., priority 2009, dated 2014)
